Test results taken from article PMC6271218, “Pharmacokinetics, Tissue Distribution and Excretion of Verticinone from F. hupehensis in Rats” (Molecules, 2014).
Like-named read-outs stand apart in the source and are kept apart here.

Legend:
[1] = Single-dose plasma pharmacokinetics after i.g. administration; format: in vivo, SD rats; details: for bioavailability / AUC(0-inf) / AUC(0-t) / Tmax / MRT last / Vd/F / half-life / Cmax: SD, rat, plasma; for bioavailability: oral, i.g. vs i.v., read-out: absolute (oral) bioavailability; for AUC(0-inf) / AUC(0-t) / Tmax / MRT last / Vd/F / half-life / Cmax: po; for MRT last: read-out: MRT0–t; for Vd/F: read-out: Vz/F; for half-life: read-out: t1/2z (converted); for Cmax: n = 5; for relationship between dosages and AUC0–t in plasma: oral 1, 2 and 4 mg/kg
Protocol: Pharmacokinetic studies of verticinone after intravenous (i.v.) and intragastrical (i.g.) administration to rats were designed to determine pharmacokinetic parameters and absolute bioavailability. For i.g administration, verticinone was suspended in 0.5% carboxymethyl cellulose sodium (CMC-Na) to final concentrations of 0.2, 0.4 and 0.8 mg/mL. Verticinone was dissolved in 20% ethanol/80% water to final concentration of 0.08 mg/mL for i.v. administration. For the i.v. group, five male and five female rats received a single dose of 0.4 mg/kg. Blood samples (0.25 mL) were obtained at 0, 4, 15, 30, 45, 60, 120, 240, 360, 480, 600 and 720 min after injection. For the single- i.g. group, fifteen male and fifteen female rats were divided into three groups, and each group received a single oral dose of 1, 2 and 4 mg/kg of verticinone, respectively. In addition, another five male and five female rats received multiple oral doses of 4 mg/kg/day, given as 2 mg/kg doses twice a day (one dose in the morning and the second dose 12 h later) for 7 days, then a single oral dose of 2 mg/kg on the eighth day. Blood samples (0.25 mL) were obtained at 0, 5, 15, 30, 45, 60, 90, 120, 240, 360, 480 and 720 min for male rats and at 0, 5, 10, 20, 30, 45, 60, 120, 240, 360, 480 and 720 min for female rats after oral administration (the eighth day for multiple-dose group). Blood samples were then centrifuged at 4000 rpm for 10 min, and the plasma was collected. All plasma samples were frozen and stored at −20 °C until analysis. Verticinone was isolated from plasma by liquid-liquid extraction according to our previously reported procedure.
The quantification of verticinone was performed by a LC-MS method based on the previously reported method with slight modifications. The liquid chromatography system consisted of a model 2010 chromatograph (Shimadzu, Kyoto, Japan) equipped with a Shim-Pack VP-ODS C18 column (150 mm × 2.0 mm, 5 μm). A Shimadzu 2010 mass spectrometer (Q-array-Octapole-Quadrupole mass analyzer) equipped with an electrospray ionization interface was used for MS detection. The mobile phase consisted of (A) distilled water and (B) methanol, and the flow rate was 0.2 mL/min. Chromatography separation was achieved using a gradient elution program, as follows: 0.03→6.0 min, B% 15→85; 6.0→7.0 min, B% 85→85; 7.0→8.0 min, B% 85→15; 8.0–12.0 min, B% 15→15. The column and autosampler tray temperature were kept constant at 35 °C and 20 °C, respectively. For the determination of verticinone, the positive mode was selected, along with the conditions as follows.
CDL voltage […], probe voltage 4.5 kV, CDL temperature 250 °C, block temperature 200 °C, gas flow 1.5 L/min. Hupehenine was used as the internal standard (IS). Both verticinone and IS were detected using selected ion monitoring (SIM) at m/z 430.25 for verticinone and m/z 416.30 for hupehenine (IS), with a dwell time of 200 ms. Blank plasma, tissue homogenate, urine, feces homogenate and bile were used to prepare the corresponding calibration curves to avoid different matrix effects.
The pharmacokinetic parameters were calculated by the DAS 2.0 software (Chinese Pharmacological Association, Beijing, China) using a standard non-compartmental method. The Cmax and Tmax were determined from the observed data. The elimination rate constant (ke) was calculated by log-linear regression of verticinone concentrations during the terminal elimination phase and the half-life (t1/2) was calculated as 0.693/ke. The AUC0–t was calculated by the linear trapezoidal method. The AUC0–∞ was calculated as the sum of AUC0–t and the extrapolated part determined by Clast/ke. The total clearance (CL) was calculated as dose/AUC0–∞. The absolute bioavailability (F) was calculated by the following equation: F = [(AUCi.g./AUCi.v.) × (Dosei.v./Dosei.g.)] × 100%. The results were expressed as mean ± SD. Statistical analyses were performed using an unpaired Student’s t-test.

[2] = Plasma protein binding in vitro by ultrafiltration, human plasma; format: in vitro ADME, humans
Protocol: The ability of verticinone to bind to plasma protein was determined by the ultrafiltration method. A Centrifree Micropartition device (Millipore, Beverly, MA, USA) was used to separate unbound and bound verticinone. Verticinone of different concentrations were added into blank rat and human plasma to give final concentrations at 5, 30 and 100 ng/mL. The spiked plasma was incubated for 30 min at 37 °C and an aliquot (100 μL) was analyzed by previously described methods to determine the total concentration of verticinone. The ultrafiltrate was obtained by centrifuging at 14,000 rpm for 10 min. The concentration of unbound verticinone in filtrate was similarly determined by the previously described methods. The percentage of free fraction (p) of verticinone was calculated as follow: p = (concentration of verticinone in ultrafiltrate/concentration of verticinone in original spiked plasma sample) × 100%.

[3] = i.g. 1 mg/kg single dose, female rats
[4] = i.g. 1 mg/kg single dose, male rats
[5] = i.g. 2 mg/kg single dose, female rats
[6] = i.g. 2 mg/kg single dose, male rats
[7] = i.g. 4 mg/kg single dose, female rats
[8] = i.g. 4 mg/kg single dose, male rats

## C[C@H]1CC[C@@H]2N(C1)C[C@H]1[C@@H]3C[C@H]4[C@@H](CC(=O)[C@H]5C[C@@H](O)CC[C@@]54C)[C@@H]3CC[C@@H]1[C@]2(C)O [verticinone, Verticinone]
[1]; female rats
  bioavailability: 2.74%
  relationship between dosages and AUC0–t in plasma: nonlinear dependence
[1]; male rats
  bioavailability: 45.8%
  relationship between dosages and AUC0–t in plasma: linear dependence
[1]; [3]
  AUC(0-inf): 15.3 ± 3.06 ng·h/mL
  AUC(0-t): 14.5 ± 3.27 ng·h/mL
  Tmax: 0.67 ± 0.31 h
  MRT last: 3.59 ± 0.18 h
  Vd/F: 280 ± 160 L/kg
  half-life: 2.86 ± 1.29 h
  Cmax: 3.67 ± 1.13 ng/mL
[1]; [4]
  AUC(0-inf): 167 ± 52.5 ng·h/mL
  AUC(0-t): 159 ± 50.1 ng·h/mL
  Tmax: 0.7 ± 0.11 h
  MRT last: 3.21 ± 0.34 h
  Vd/F: 25.5 ± 9.07 L/kg
  half-life: 2.78 ± 0.85 h
  Cmax: 38.9 ± 9.34 ng/mL
[1]; [5]
  AUC(0-inf): 18.8 ± 5.01 ng·h/mL
  AUC(0-t): 17.3 ± 5.4 ng·h/mL
  Tmax: 0.4 ± 0.36 h
  MRT last: 3.42 ± 1.22 h
  Vd/F: 649 ± 419 L/kg
  half-life: 4.05 ± 2.48 h
  Cmax: 7.45 ± 7.1 ng/mL
[1]; [6]
  AUC(0-inf): 475 ± 119 ng·h/mL
  AUC(0-t): 446 ± 111 ng·h/mL
  Tmax: 1.45 ± 1.42 h
  MRT last: 3.62 ± 0.37 h
  Vd/F: 19.4 ± 6.7 L/kg
  half-life: 3.05 ± 0.78 h
  Cmax: 94.8 ± 17.1 ng/mL
[1]; [7]
  AUC(0-inf): 27.1 ± 5.78 ng·h/mL
  AUC(0-t): 26.6 ± 5.84 ng·h/mL
  Tmax: 0.4 ± 0.35 h
  MRT last: 2.04 ± 0.21 h
  Vd/F: 387 ± 74.2 L/kg
  half-life: 1.84 ± 0.58 h
  Cmax: 12.6 ± 5.14 ng/mL
[1]; [8]
  AUC(0-inf): 769 ± 257 ng·h/mL
  AUC(0-t): 737 ± 236 ng·h/mL
  Tmax: 0.7 ± 0.11 h
  MRT last: 3.19 ± 0.48 h
  Vd/F: 18.6 ± 9.14 L/kg
  half-life: 2.33 ± 0.86 h
  Cmax: 176 ± 45.2 ng/mL
[2]; human plasma, 5 ng/mL, ultrafiltration, n = 4, read-out: Protein binding rates (%) (converted)
  fraction unbound at 30 min, 5 ng/mL: 0.074
[2]; human plasma, 30 ng/mL, ultrafiltration, n = 4, read-out: Protein binding rates (%) (converted)
  fraction unbound at 30 min, 30 ng/mL: 0.105
[2]; human plasma, 100 ng/mL, ultrafiltration, n = 4, read-out: Protein binding rates (%) (converted)
  fraction unbound at 30 min, 100 ng/mL: 0.054
[2]; human, plasma, humans, concentration range 5~100 ng/mL
  fraction unbound at 30 min: 0.054 to 0.105
